# Experimental data reported in patent publication US20030100598A1, “Novel esters derived from (rr,ss)-2-hydroxybenzoate of 3-(2-dimethylaminomethyl-1-hydroxycyclohexyl)phenyl” (priority 1999, published 2003).
# Assays:
# [1] = tested on: Male Swiss mice; experiment: Hot plate method, analgesic activity in mice; assay type: in vivo; conditions: for % response time increase: hot plate, 15 mg/kg, intraperitoneal adm., n = 20; for % response time increase on hot plate: 20 μmol/kg, oral adm., n = 20-40
# Method: The method that was used is described by Eddy N. B. and Leimbach D. (J. Pharm. Exp. Ther. 107: 385-393, 1953). The analgesic effect of the products was evaluated analysing the behaviour of the animals on a hot surface at 55° C.±1° C.
# Male Swiss mice weighing 20-25 g were used. The compounds being tested were administered orally or intraperitoneally 1 hour ∘ 30 minutes before starting the test, respectively.
# The process consisted of placing the animals on the plate and keeping them in a Plexiglas cylinder 25 cm high and 21 cm […]. The time the animals took to jump off the hot surface was determined. The animals were selected before starting the test so that those that took longer than 10 seconds to jump off were not included in the group that would receive treatment.
# 30 minutes after administering the product being tested, the test was repeated and the maximum time it took the animals to jump off was again recorded.
# The results are expressed as the % of jump time increase calculated as follows: [formula]
# In order to determine the duration of the analgesic effect of the orally administered products, the analgesic activity was evaluated on the hot plate 1, 3, 6, 8, and 24 hours after the administration of the product, as well as the control group which received treatment only with the vehicle. The base responses were evaluated at 30 and 5 minutes prior to administering the products.
# [2] = tested on: Male Swiss mice; experiment: Determination of the DL50 (acute single dose oral toxicity); assay type: in vivo; conditions: oral adm., 14 days observation
# Method: (EUDRA/S/87/011, Single Dose Toxicity, European Directive 75/318/EEC) (ICH S4, Toxicity Studies, single dose and repeated dose, CPMP vol III February 87, Single dose toxicity)
# Male Swiss mice of the same batch weighing 20-25 g are used in order to estimate the acute toxicity of the products.
# Prior to administering the products, the animals were forced to fast for 12 hours with no intake of food but free access to water. Several subgroups of 10 animals were randomly selected and orally given increasing doses of the products in single administration, after which they remained under observation for a period of 14 days with free access to water and food. Finally, the number of dead animals of each subgroup was quantified and the value of the DL50 was calculated (1-2).
SMILES,% response time increase [1],% response time increase on hot plate [1],DL50 approx. [2]
"COc1ccc2cc(C(C)C(=O)Oc3cccc(C4(O)CCCCC4CN(C)C)c3)ccc2c1 (stereo not drawn) [EXAMPLE 2, 3-(2-dim-ethylaminomethyl-1-hydroxy-cyclohexyl)-phenyl 2-(6-methoxy-naphthalen-2-yl)-propionate]",539 ± 50%,,
"CN(C)CC1=C(c2cccc(OC(=O)c3ccccc3O)c2)CCCC1 [EXAMPLE 7, 3-(2-dimethylaminomethyl-cyclohex-1-enyl)-phenyl 2-hydroxybenzoate]",634 ± 42%,,
"CN(C)CC1CCCCC1(O)c1cccc(OC(=O)c2ccccc2O)c1 (stereo not drawn) [EXAMPLE 6, 3-(2-dimethylaminomethyl-1-hydroxy-cyclohexyl)-phenyl (RR-SS)-2-hydroxybenzoate]",546 ± 63%,248 ± 72%,~550 mg/kg
"CC(C)Cc1ccc(C(C)C(=O)Oc2cccc(C3=C(CN(C)C)CCCC3)c2)cc1 (stereo not drawn) [EXAMPLE 4, 3-(2-dimethylaminomethyl-cyclohex-1-enyl)-phenyl 2-(4-isobutyl-phenyl)-propionate]",333 ± 134%,,
"CN(C)CC1CCCCC1(O)c1cccc(OC(=O)C2CCn3c(C(=O)c4ccccc4)ccc32)c1 (stereo not drawn) [EXAMPLE 3, 3-(2-dimethylaminomethyl-1-hydroxy-cyclohexyl)-phenyl 5-benzoyl-2,3-dihydro-1H-pyrrolizine-1-carboxylate]",416 ± 146%,,
"CN(C)CC1CCCCC1(O)c1cccc(OC(=O)c2ccccc2OC(=O)N(C)C)c1 (stereo not drawn) [EXAMPLE 8, 3-(2-dimethylaminomethyl-1-hydroxy-cyclohexyl)-phenyl (RR—SS)-2-dimethylcarbamoyloxy-benzoate]",327 ± 65%,,
"CC(C)Cc1ccc(C(C)C(=O)Oc2cccc(C3(O)CCCCC3CN(C)C)c2)cc1 (stereo not drawn) [EXAMPLE 1, 3-(2-dimethylaminomethyl-1-hydroxy-cyclohexyl)-phenyl 2-(4-isobutyl-phenyl)-propionate]",568 ± 100%,210 ± 88%,~900 mg/kg
"COc1ccc2cc(C(C)C(=O)Oc3cccc(C4=C(CN(C)C)CCCC4)c3)ccc2c1 (stereo not drawn) [EXAMPLE 5, 3-(2-dimethylaminomethyl-cyclohex-1-enyl)-phenyl 2-(6-methoxy-naphthalen-2-yl)-propionate]",356 ± 151%,,
"COc1cccc(C2(O)CCCCC2CN(C)C)c1 (single isomer, unassigned) [Tramadol, (1R, 2R or 1S, 2S)-2-[(dimethylamino)methyl]-1-(3-methoxyphenyl) cyclohexano, reference compound]",218 ± 98%,87 ± 23%,~350 mg/kg
